Results taken from ChEMBL document CHEMBL1201862, “PubChem BioAssay data set” (2004).
Calls of active or inactive are those of the source.

What was measured:
[1] = target: T1, Lysosomal acid glucosylceramidase (Homo sapiens, UniProt P04062); experiment: Dose response cell-based high throughput screening assay to identify enhancers of beta-glucosidase activity. [Related pubchem assays: 784 ]; type: functional
T1 sequence (P04062 whole entry): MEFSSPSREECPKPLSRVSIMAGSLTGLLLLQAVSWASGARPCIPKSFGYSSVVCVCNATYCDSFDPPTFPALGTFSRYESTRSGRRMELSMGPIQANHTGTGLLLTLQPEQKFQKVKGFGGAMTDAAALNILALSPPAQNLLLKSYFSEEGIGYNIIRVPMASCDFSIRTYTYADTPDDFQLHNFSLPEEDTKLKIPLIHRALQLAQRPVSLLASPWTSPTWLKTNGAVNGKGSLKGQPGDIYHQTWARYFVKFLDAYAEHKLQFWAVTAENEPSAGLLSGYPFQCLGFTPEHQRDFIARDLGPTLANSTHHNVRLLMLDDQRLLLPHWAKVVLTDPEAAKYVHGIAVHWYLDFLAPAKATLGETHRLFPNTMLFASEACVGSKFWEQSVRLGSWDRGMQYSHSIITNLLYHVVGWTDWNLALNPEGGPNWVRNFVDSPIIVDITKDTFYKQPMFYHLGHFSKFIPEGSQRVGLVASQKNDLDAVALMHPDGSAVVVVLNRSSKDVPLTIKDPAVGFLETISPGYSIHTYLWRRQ

[2] = HPDE-C7 pancreatic duct cell viability loss – fluorescence, HTS (AID 430); type: functional, cell-based; conditions: Homo sapiens
[3] = microbe, parasite or virus in culture; type: functional; conditions: Mycobacterium tuberculosis
[4] = viability loss of HPDE-C7K cells – cell-based, fluorescence, HTS, primary screen (AID 431); type: functional; conditions: Homo sapiens
[5] = viability of PTEN-deleted HCT116 cells – cell-based, HCT116 PTEN knockout, dose response (AID 1047); type: functional;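 note: HCT116 colon tumor cells with PTEN knocked out; cells exposed to compound for 60 hours before readout; potency for loss of cell viability measured by luminescence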
[6] = viability of HCT116 lacking mutant beta-catenin – cell-based, human colon tumor, dose response (AID 1045); type: functional;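 note: HCT116 colon tumor cells with beta catenin knocked out; cells exposed to compound for 60 hours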
[7] = target: G-protein coupled receptor 55 (Homo sapiens, UniProt Q9Y2T6); experiment: selective activators of receptor GPR55 – imaging, U2OS cells, beta-arrestin-GFP redistribution, primary screen (AID 1961); type: functional
Chain of G-protein coupled receptor 55 (Q9Y2T6 whole entry): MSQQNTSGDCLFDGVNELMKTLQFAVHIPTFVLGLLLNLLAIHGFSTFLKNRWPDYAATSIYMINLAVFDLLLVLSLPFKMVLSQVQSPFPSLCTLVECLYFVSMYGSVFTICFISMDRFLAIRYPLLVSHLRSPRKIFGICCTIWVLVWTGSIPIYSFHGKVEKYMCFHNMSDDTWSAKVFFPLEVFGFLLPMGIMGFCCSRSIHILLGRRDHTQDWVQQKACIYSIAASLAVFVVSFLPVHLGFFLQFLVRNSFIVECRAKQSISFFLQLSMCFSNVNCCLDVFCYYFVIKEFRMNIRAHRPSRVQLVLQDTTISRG

[8] = target: Cytochrome P450 2D6 (Homo sapiens, UniProt P10635);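 note: CYP2D6 member of a cytochrome P450 panel assay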
Chain of Cytochrome P450 2D6 (P10635 whole entry): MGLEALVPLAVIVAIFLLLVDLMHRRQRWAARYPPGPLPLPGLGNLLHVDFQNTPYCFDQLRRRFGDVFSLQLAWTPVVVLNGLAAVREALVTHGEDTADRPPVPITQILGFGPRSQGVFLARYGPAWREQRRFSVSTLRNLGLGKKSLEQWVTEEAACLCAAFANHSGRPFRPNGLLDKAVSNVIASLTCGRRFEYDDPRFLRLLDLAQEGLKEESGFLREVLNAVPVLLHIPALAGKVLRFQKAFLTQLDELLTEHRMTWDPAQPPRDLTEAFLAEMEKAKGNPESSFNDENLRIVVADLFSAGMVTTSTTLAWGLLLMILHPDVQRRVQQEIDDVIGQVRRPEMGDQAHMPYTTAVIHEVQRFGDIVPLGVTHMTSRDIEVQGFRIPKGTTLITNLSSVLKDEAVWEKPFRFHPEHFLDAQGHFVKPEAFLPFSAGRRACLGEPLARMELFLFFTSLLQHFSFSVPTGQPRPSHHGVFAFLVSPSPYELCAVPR

[9] = test system: Vero; experiment: Vero 76 cell viability after compound exposure – Vero 76 cells, synthesized analogs, cytotoxicity control for West Nile virus antiviral project, SAR follow-up (AID 2414); type: functional; conditions: Chlorocebus sabaeus
[10] = test system: Vero; experiment: Vero cell viability after compound exposure – synthesized analogs, set II, cytotoxicity control for West Nile virus antiviral project, SAR follow-up (AID 2402); type: functional; conditions: Chlorocebus sabaeus
[11] = test system: Vero; experiment: host cell viability loss, Vero E6 – synthesized analogs, cytotoxicity control for West Nile virus antiviral project, SAR follow-up (AID 2244); type: functional; conditions: Chlorocebus sabaeus
[12] = A Cell Based Assay for the Identification of Probe candidate Compounds with Anti- Venezuelan Equine Encephalitis virus. [Related pubchem assays: 2409, 2419, 1621, 2238, 2405, 2024, 2065, 2402, 2414, 1635, 1650, 2244 ]; type: functional
[13] = test system: Vero; experiment: antiviral protection of cells from WNV – synthesized analogs, SAR follow-up (AID 2238); type: functional, cell-based; conditions: Chlorocebus sabaeus
[14] = target: T2, Ubiquitin-conjugating enzyme E2 N (Homo sapiens, UniProt P61088); type: functional;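 note: Dose-response confirmation in a TR-FRET assay detecting UBC13-driven polyubiquitin chain formation, inhibition measured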
T2 sequence (P61088 whole entry): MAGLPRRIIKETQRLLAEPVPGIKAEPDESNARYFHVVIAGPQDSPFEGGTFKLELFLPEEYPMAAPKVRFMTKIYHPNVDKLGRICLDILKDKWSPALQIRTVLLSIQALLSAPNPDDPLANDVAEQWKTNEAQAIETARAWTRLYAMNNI

[15] = THP-1 cell cytotoxicity, dose response, cytotoxicity control for non-replicating M. tuberculosis project (AID 489025); type: functional
[16] = HepG2 cell cytotoxicity, dose response, cytotoxicity control for non-replicating M. tuberculosis project (AID 489018); type: functional; conditions: Mycobacterium tuberculosis
[17] = cells; type: functional
[18] = reduction of Shn3 3'UTR-driven luciferase in osteoblasts – cell-based, Clone20 osteoblasts, firefly luciferase, cherry-picked, dose response (AID 624132); type: functional;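 note: firefly luciferase luminescence from reporter carrying the Shn3 3'UTR in osteoblasts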
[19] = loss of viability in HepG2 cells – cell-based, CellTiter-Glo, cherry-picked, cytotoxicity control for Shn3 inhibitor project, dose response (AID 624134); type: functional
[20] = non-specific 3'UTR reporter inhibition in Clone20-Shn3RL – cell-based, Renilla luciferase, cherry-picked, counter-screen for Shn3 inhibitor project, dose response (AID 624133); type: functional
[21] = viability loss in HeLa cells – cytotoxicity control for MgcRacGAP inhibitor project, dose response (AID 624300); type: functional
[22] = target: T3, Rac GTPase-activating protein 1 (Homo sapiens, UniProt Q9H0H5); experiment: blockers of MgcRacGAP-driven Rac1 GTP hydrolysis – biochemical, ADP Hunter fluorescence, primary and confirmatory, confirmation (AID 624330); type: functional
T3 sequence (Q9H0H5 whole entry): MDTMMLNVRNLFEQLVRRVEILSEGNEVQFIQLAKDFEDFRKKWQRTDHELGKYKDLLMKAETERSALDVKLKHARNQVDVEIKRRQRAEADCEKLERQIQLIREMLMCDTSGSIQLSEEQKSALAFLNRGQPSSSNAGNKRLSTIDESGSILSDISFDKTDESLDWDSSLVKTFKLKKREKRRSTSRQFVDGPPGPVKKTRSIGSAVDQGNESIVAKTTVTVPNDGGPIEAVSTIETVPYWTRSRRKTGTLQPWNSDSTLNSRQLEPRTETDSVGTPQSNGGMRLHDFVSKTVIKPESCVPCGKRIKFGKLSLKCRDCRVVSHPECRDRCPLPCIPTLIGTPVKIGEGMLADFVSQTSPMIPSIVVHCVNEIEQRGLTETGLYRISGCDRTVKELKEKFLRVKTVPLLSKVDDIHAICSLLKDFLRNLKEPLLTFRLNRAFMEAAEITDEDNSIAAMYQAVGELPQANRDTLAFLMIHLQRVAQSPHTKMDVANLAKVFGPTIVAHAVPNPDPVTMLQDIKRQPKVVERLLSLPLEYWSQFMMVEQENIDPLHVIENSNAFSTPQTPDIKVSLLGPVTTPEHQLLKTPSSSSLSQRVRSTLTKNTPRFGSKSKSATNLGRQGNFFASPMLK

[23] = A549 cell cytotoxicity, dose response, cytotoxicity control, plate reader, cherry-pick, antagonist series (AID 743412); type: functional, cell-based
[24] = toxicity toward HepG2 liver cells – cell-based, plate reader, cherry-pick, antagonist series, cytotoxicity control, dose response (AID 743416); type: functional
[25] = blockers of bursicon-stimulated LGR2 cAMP reporter – cell-based, HEK293, CRE-luciferase reporter, cherry pick, set 2, dose response (AID 743343); type: functional;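 note: transfected cells were stimulated with diluted bursicon conditioned medium after compound addition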
[26] = blockade of melanocortin 4 receptor signaling – cell-based, plate reader, cherry pick, counter-screen for LGR2 antagonist project, dose response (AID 743444); type: functional;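 note: transfected HEK 293 cells stimulated with alpha-MSH peptide; potency of inhibitors of the alpha-MSH evoked signal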
[27] = target: T4, Sphingosine 1-phosphate receptor 4 (Homo sapiens, UniProt O95977); experiment: potency of S1P4 activators – cell-based, fluorescence, synthesized compounds, late-stage follow-up (AID 463107); type: functional
T4 sequence (O95977 whole entry): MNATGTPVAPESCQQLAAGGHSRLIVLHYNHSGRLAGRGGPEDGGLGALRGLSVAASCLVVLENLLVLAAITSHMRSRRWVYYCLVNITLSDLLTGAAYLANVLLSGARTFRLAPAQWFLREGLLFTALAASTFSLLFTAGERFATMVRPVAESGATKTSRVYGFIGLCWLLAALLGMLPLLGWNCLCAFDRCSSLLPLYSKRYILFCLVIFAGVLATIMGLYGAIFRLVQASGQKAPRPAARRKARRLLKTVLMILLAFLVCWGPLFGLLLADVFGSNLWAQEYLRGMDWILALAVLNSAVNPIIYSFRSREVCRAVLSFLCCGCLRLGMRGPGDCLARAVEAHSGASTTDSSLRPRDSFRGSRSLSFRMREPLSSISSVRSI

For `FC(F)(F)c1ccc(N2CCOCC2)c(Nc2nc3ccccc3n3cnnc23)c1`, which EC50 [1] is on record?
The EC50 was > 50 µM (not active).

What about the EC50 [2] of the same molecule?
The EC50 was 5.89 µM (active).

What about the CC50 [3] of the same molecule?
Its CC50 is 27.4 µM (active).

And the EC50 [4]?
The EC50 was 5.98 µM (active).

What about the EC50 [5] of the same molecule?
Its EC50 is 13.5 µM (active).

What about the EC50 [6] of the same molecule?
The EC50 was 16.5 µM (active).

What about the EC50 [7] of the same molecule?
Its EC50 is 4.18 µM (active).

What about the AC50 [8] of the same molecule?
Its AC50 is 28.2 µM (inconclusive).

What does the source list for `Cc1cccc2c1-c1sc(C(=O)NCCCN3CCC(C)CC3)cc1CO2`?
CC50 [9]: 20 µM (active); CC50 [10]: 10.1 µM (active); CC50 [11]: 10 µM (active); IC50 [12]: 8.52 µM (active); IC50 [13]: > 40 µM (active); IC50 [14]: > 20 µM (inactive)

Which CC50 [3] does the source give for `CCn1c2ccccc2c2cc(CNCc3ccc(OC)cc3OC)ccc21` here?
Its CC50 is 19.3 µM (active).

And the CC50 [15]?
The CC50 was 16.7 µM (active).

And the CC50 [16]?
The CC50 was 15.6 µM (active).

What about the IC50 [17] of the same molecule?
Its IC50 is 12.8 µM (active).

And the AC50 [18]?
The AC50 was 14.7 µM (active).

What about the AC50 [19] of the same molecule?
Its AC50 is 16.9 µM (active).

And the AC50 [20]?
Its AC50 is 14.8 µM (active).

What about the CC50 [21] of the same molecule?
The CC50 was 37 µM (active).

What about the IC50 [22] of the same molecule?
The IC50 was 99.7 µM (active).

What about the AC50 [23] of the same molecule?
Its AC50 is 13.6 µM (active).

What about the AC50 [24] of the same molecule?
Its AC50 is 13.8 µM (active).

What about the AC50 [25] of the same molecule?
The AC50 was 18.6 µM (active).

And the AC50 [26]?
The AC50 was 32.9 µM (active).

For `Cc1ccc(OCCOc2ccccc2)c([N+](=O)[O-])n1`, which EC50 [27] is on record?
Its EC50 is > 50 µM (inactive).
